The structures appear in SMILES notation. Read-outs that look alike come from different tables or passages of the source.

Common to all, as to assay: cell-based
In experiment [1] the target is T1, hCB1 (Homo sapiens, UniProt P21554). On the set-up: host or cells: CHO-K1 PathHunter. The protocol:
PathHunter CB1 β-Arrestin Assay: Chinese hamster ovary K1 (CHO-K1)-PathHunter hCB1 β-arrestin cells (DiscoveRx, Fremont, CA) were seeded at 5000 cells/well in 384-well plates 24 h before use and incubated at 37° C., 5% CO2. Compounds were dissolved in dimethyl sulfoxide (DMSO) and diluted in optimized cell culture (OCC) media. Agonist EC80 was determined directly from an agonist dose—response curve (data not shown). […] Five microliters of allosteric modulator or vehicle solution was added to each well at the appropriate concentrations and incubated for 30 min. Five microliters of agonist was then added to each well followed by a 90 min incubation. Fifteen microliters of detection reagent was then added followed by further 60 min incubation at room temperature. Chemiluminescence was measured on a standard luminescence plate reader as relative light units (RLU). Basal RLU was defined as zero. […] Data were analyzed using the fourparameter variable-slope and allosteric EC50 shift nonlinear regression equations in Prism 5.0 (GraphPad, San Diego, CA).

The target in experiment [2] is T2, CB2 (Homo sapiens, UniProt P34972). The settings on record: CB2, agonist mode; for EC50: read-out: CB2 Agonist mode cAMP EC50; for Emax: read-out: CB2 Agonist mode cAMP Emax.
Experiment [3] addresses T2, CB2. The settings on record: CB2, agonist mode; for EC50: read-out: CB2 Agonist mode β-Arrestin EC50; for Emax: read-out: CB2 Agonist mode β-Arrestin Emax.
For experiment [4], the target named is T1, hCB1. On the set-up: host or cells: CHO-K1. The procedure: HitHunter cAMP assay: Inhibition of forskolin-stimulated cAMP was determined using the DiscoveRx HitHunter assay in hCB1R CHO-K1 cells. Cells (20,000 cells/well in low-volume 96 well plates) were incubated overnight in Opti-MEM (Invitrogen) containing 1% FBS at 37° C. and 5% CO2. Following this, Opti-MEM media was removed and replaced with cell assay buffer (DiscoveRx) and cells were co-treated at 37° C. with 10 μM forskolin and hCB1R ligands (0.10 nM-10 μM) for 30 min or 90 min cAMP antibody solution and cAMP working detection solutions were then added to cells according to the manufacturer's directions (DiscoveRx®) and cells were incubated for 60 min at room temperature. cAMP solution A was added according to the manufacturer's directions (DiscoveRx®) and cells were incubated for an additional 60 min at room temperature before chemiluminescence was measured on a Cytation 5 plate reader (top read, gain 200, integration time 10,000 ms).

The mark [5] stands for this setting: CB1, PAM mode, read-out: CB1 PAM mode β-Arrestin EC50.
The mark [6] stands for this setting: CB1, agonist mode, read-out: CB1 Agonist mode β-Arrestin EC50.
The mark [7] stands for this setting: read-out: CB1 Agonist mode β-Arrestin Emax.
Where [8] appears, read: read-out: CB1 PAM mode β-Arrestin Emax.
[9] abbreviates: CB1, PAM mode, read-out: CB1 PAM mode cAMP EC50.
[10] abbreviates: CB1, agonist mode, read-out: CB1 Agonist mode cAMP EC50.
The mark [11] stands for this setting: read-out: CB1 Agonist mode cAMP Emax, CB1, agonist mode.
Where [12] appears, read: read-out: CB1 PAM mode cAMP Emax, CB1, PAM mode.

T1 sequence (P21554 whole entry): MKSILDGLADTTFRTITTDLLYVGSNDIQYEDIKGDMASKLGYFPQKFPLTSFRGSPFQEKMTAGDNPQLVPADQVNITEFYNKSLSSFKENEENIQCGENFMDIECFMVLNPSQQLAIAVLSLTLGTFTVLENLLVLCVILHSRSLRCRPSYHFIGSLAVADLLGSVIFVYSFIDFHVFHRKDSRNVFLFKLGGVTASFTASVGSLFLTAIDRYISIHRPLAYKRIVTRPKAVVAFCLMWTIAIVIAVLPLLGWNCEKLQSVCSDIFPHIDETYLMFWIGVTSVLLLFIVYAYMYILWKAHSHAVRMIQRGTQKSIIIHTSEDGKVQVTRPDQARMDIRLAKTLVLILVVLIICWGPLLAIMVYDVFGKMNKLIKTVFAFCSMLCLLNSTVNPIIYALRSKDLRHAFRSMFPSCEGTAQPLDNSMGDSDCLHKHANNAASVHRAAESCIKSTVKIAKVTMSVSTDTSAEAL
T2 sequence (P34972 whole entry, species assumed): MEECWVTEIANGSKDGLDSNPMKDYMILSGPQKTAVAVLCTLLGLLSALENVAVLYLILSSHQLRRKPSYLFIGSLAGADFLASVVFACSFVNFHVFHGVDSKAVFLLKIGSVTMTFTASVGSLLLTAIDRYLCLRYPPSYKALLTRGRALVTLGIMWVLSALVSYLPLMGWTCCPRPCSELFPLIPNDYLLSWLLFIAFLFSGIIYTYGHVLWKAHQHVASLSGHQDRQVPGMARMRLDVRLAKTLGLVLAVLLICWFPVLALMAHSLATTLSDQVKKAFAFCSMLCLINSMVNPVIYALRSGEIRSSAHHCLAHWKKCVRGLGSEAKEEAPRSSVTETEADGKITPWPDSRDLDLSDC

In the case of `O=C(O)/C=C\C(c1ccccc1)c1cn(-c2ccccc2)c2ccccc12` (centres unmarked) [Compound 15, (Z)-4-phenyl-4-(1-phenyl-1H-indol-3-yl)but-2-enoic acid], the half-maximal effective concentration (EC50) was > 10 µM on hCB1 [1] (setting [5]); > 10 µM at hCB1 [1] (setting [6]); 1050 nM at CB2 [2]; > 10 µM at CB2 [3]; 639 nM on hCB1 [4] (setting [9]); 506 nM on hCB1 [4] (setting [10]). The Emax at hCB1 [1] (setting [7]) is 0%; on hCB1 [1] (setting [8]), 0%; at CB2 [2], 81%; on CB2 [3] it was 0%; at hCB1 [4] (setting [11]), 86%; at hCB1 [4] (setting [12]), 84%.
`c1ccc(C(Cc2nnn[nH]2)c2cn(-c3ccccc3)c3ccccc23)cc1` (centres unmarked) [Compound 39, 1-Phenyl-3-(1-phenyl-2-(1H-tetrazol-5-yl)ethyl)-1H-indole]: the EC50 was > 10 µM on hCB1 [1] (setting [5]) and 423 nM at hCB1 [4] (setting [9]). Moreover, the Emax on hCB1 [1] (setting [8]) turned out to be 0%; at hCB1 [4] (setting [12]), 94%.
As for `O=C(O)CCCC(c1ccccc1)c1cn(-c2ccccc2)c2ccccc12` (centres unmarked) [Compound 19, 5-Phenyl-5-(1-phenyl-1H-indol-3-yl)pentanoic acid], the EC50 was > 10 µM on hCB1 [1] (setting [5]); > 10 µM at hCB1 [1] (setting [6]); 654 nM at CB2 [2]; > 10 µM on CB2 [3]; 1420 nM at hCB1 [4] (setting [9]); 827 nM at hCB1 [4] (setting [10]). In addition, the Emax on hCB1 [1] (setting [7]) is 0%; at hCB1 [1] (setting [8]), 0%; at CB2 [2], 95%; at CB2 [3], 0%; on hCB1 [4] (setting [11]), 98%; on hCB1 [4] (setting [12]) it was 98%.
For the compound `OCCCC(c1ccccc1)c1cn(-c2ccccc2)c2ccccc12` (centres unmarked) [Compound 34, 4-Phenyl-4-(1-phenyl-1H-indol-3-yl)butan-1-ol], the concentration for a half-maximal effect (EC50) at hCB1 [1] (setting [5]) is > 10 µM; at hCB1 [4] (setting [9]), > 10000 nM. Further, the results for the Emax at hCB1 [1] (setting [8]) and on hCB1 [4] (setting [12]) were 5% and 0%, respectively.
Regarding `Cc1ccc2c(C(CCC(=O)O)c3ccccc3)cn(-c3ccccc3)c2c1` (centres unmarked) [Compound 17, 4-(6-Methyl-1-phenyl-1H-indol-3-yl)-4-phenylbutanoic acid], the EC50 is > 10 µM on hCB1 [1] (setting [5]); > 10 µM at hCB1 [1] (setting [6]); 1000 nM at CB2 [2]; > 10 µM on CB2 [3]; 1440 nM at hCB1 [4] (setting [9]); 1250 nM on hCB1 [4] (setting [10]). For the same compound, the Emax at hCB1 [1] (setting [7]) came out at 0%; at hCB1 [1] (setting [8]) it was 0%; on CB2 [2], 74%; at CB2 [3], 0%; on hCB1 [4] (setting [11]) it was 73%; on hCB1 [4] (setting [12]), 93%.
Regarding `OC(c1ccccc1)c1cn(-c2ccccc2)c2ccccc12` (centres unmarked) [Compound 30, Phenyl(1-phenyl-1H-indol-3-yl)methanol], the results for the EC50 on hCB1 [1] (setting [5]) and at hCB1 [4] (setting [9]) were > 10 µM and > 10000 nM, respectively. In addition, the Emax at hCB1 [1] (setting [8]) and on hCB1 [4] (setting [12]) was 0% throughout.
As to `O=C(O)CCC(c1ccccc1)c1cn(-c2ccccn2)c2ccccc12` (centres unmarked) [Compound 21, 4-Phenyl-4-(1-(pyridin-2-yl)-1H-indol-3-yl)butanoic acid], the EC50 is > 10 µM at hCB1 [1] (setting [5]); > 10 µM at hCB1 [1] (setting [6]); 1110 nM at CB2 [2]; > 10 µM on CB2 [3]; 869 nM on hCB1 [4] (setting [9]); 457 nM on hCB1 [4] (setting [10]). The Emax at hCB1 [1] (setting [7]) came to 0%; on hCB1 [1] (setting [8]) it was 0%; on CB2 [2] it was 85%; at CB2 [3], 0%; at hCB1 [4] (setting [11]), 95%; at hCB1 [4] (setting [12]), 96%.
For `OCC(c1ccccc1)c1cn(-c2ccccc2)c2ccccc12` (centres unmarked) [Compound 31, 2-Phenyl-2-(1-phenyl-1H-indol-3-yl)ethan-1-ol], the EC50 was > 10 µM on hCB1 [1] (setting [5]) and > 10000 nM at hCB1 [4] (setting [9]). The Emax at hCB1 [1] (setting [8]) came to 0%; at hCB1 [4] (setting [12]) it was 1.31%.
The corresponding values for `O=C(O)C(c1ccccc1)c1cn(-c2ccccc2)c2ccccc12` (centres unmarked) [Compound 7, 2-Phenyl-2-(1-phenyl-1H-indol-3-yl)acetic acid] are > 10 µM, 4180 nM, 0% and 78.9%.
Turning to `CC(CC(c1ccccc1)c1cn(-c2ccccc2)c2ccccc12)C(=O)O` (racemic) [Compound 11, (±)-2-Methyl-4-phenyl-4-(1-phenyl-1H-indol-3-yl)butanoic acid], the EC50 on hCB1 [1] (setting [5]) is > 10 µM; at hCB1 [1] (setting [6]), > 10 µM; at hCB1 [4] (setting [9]) it was 1890 nM; at hCB1 [4] (setting [10]), 1260 nM. In addition, the Emax at hCB1 [1] (setting [7]) came to 0%; on hCB1 [1] (setting [8]), 0%; at hCB1 [4] (setting [11]) it was 62%; at hCB1 [4] (setting [12]), 100%.
On to `O=C(c1ccccc1)c1cn(-c2ccccc2)c2ccccc12` [Compound 40, Phenyl(1-phenyl-1H-indol-3-yl)methanone], for which the EC50 at hCB1 [1] was > 10 µM; on hCB1 [4] (CB1 PAM mode cAMP EC50, CB1, PAM mode), > 10000 nM. In addition, the maximum response (Emax) at hCB1 [1] (setting [8]) amounted to 0.273%; at hCB1 [4] (setting [12]) it was 11.7%.
For `CC(CC(c1ccccc1)c1cn(-c2ccccc2)c2ccccc12)C(=O)O` (racemic) [Compound 12, (±)-2-Methyl-4-phenyl-4-(1-phenyl-1H-indol-3-yl)butanoic acid], the “CB1 PAM mode β-Arrestin Emax” value on hCB1 [1] (CB1, PAM mode) is given as “(0) %”. Moreover, the EC50 at hCB1 [1] (setting [5]) was > 10 µM; on hCB1 [1] (setting [6]), > 10 µM; at hCB1 [4] (setting [9]), 704 nM; on hCB1 [4] (setting [10]), 1060 nM. For the same compound, the “CB1 Agonist mode β-Arrestin Emax” value on hCB1 [1] (CB1, agonist mode) is listed as “(0) %”. Also, the “CB1 PAM mode cAMP Emax” value on hCB1 [4] (CB1, PAM mode) is reported as “(101) %”. In addition, on hCB1 [4] (CB1, agonist mode), the “CB1 Agonist mode cAMP Emax” value is “(60) %”.
In the case of `O=C(O)CC(c1ccccc1)c1cn(-c2ccccc2)c2ccccc12` (centres unmarked) [Compound 8, 3-Phenyl-3-(1-phenyl-1H-indol-3-yl)propanoic acid], the results for the EC50 at hCB1 [1] (setting [5]) and on hCB1 [4] (setting [9]) were > 10 µM and 509 nM, respectively. The Emax on hCB1 [1] (setting [8]) is 0%; at hCB1 [4] (setting [12]), 144%.
The like results for `CCOC(=O)C(C(=O)O)C(c1ccccc1)c1cn(-c2ccccc2)c2ccccc12` (centres unmarked) [Compound 10, 3-Ethoxy-3-oxo-2-(phenyl(1-phenyl-1H-indol-3-yl)methyl)propanoic acid] were, in that order, > 10 µM, > 10000 nM, 4.59% and 6.98%.
The corresponding values for `OCC(c1ccccc1)c1cn(-c2ccccc2)c2ccc(Cl)cc12` (centres unmarked) [Compound 35, 2-(5-Chloro-1-phenyl-1H-indol-3-yl)-2-phenylethan-1-ol] are > 10 µM, > 10000 nM, 0% and 2.81%.
As to `OCCC(c1ccccc1)c1cn(-c2ccccc2)c2ccccc12` (centres unmarked) [Compound 32, 3-Phenyl-3-(1-phenyl-1H-indol-3-yl)propan-1-ol], the EC50 was > 10 µM on hCB1 [1] (setting [5]) and > 10000 nM on hCB1 [4] (setting [9]). Moreover, the Emax amounted to 0% on hCB1 [1] (setting [8]) and 27.1% on hCB1 [4] (setting [12]).
The like results for `CCOC(=O)CCC(c1ccccc1)c1cn(-c2ccccc2)c2ccccc12` (centres unmarked) [Compound 13, Ethyl 4-phenyl-4-(1-phenyl-1H-indol-3-yl)butanoate] were, in that order, > 10 µM, > 10000 nM, 0% and 0%.
In the case of `NC(=O)CC(c1ccccc1)c1cn(-c2ccccc2)c2ccccc12` (centres unmarked) [Compound 38, 3-Phenyl-3-(1-phenyl-1H-indol-3-yl)propanamide], the EC50 was > 10 µM on hCB1 [1] (setting [5]) and > 10000 nM on hCB1 [4] (setting [9]). For the same compound, the Emax on hCB1 [1] (setting [8]) was 0%; at hCB1 [4] (setting [12]), 27.1%.
Take `O=C(O)C(C(=O)O)C(c1ccccc1)c1cn(-c2ccccc2)c2ccccc12` (centres unmarked) [Compound 9, 2-(Phenyl(1-phenyl-1H-indol-3-yl)methyl)malonic acid]: the results for the EC50 on hCB1 [1] (setting [5]) and at hCB1 [4] (setting [9]) were > 10 µM and 1280 nM, respectively. Further, the Emax at hCB1 [1] (setting [8]) was 0%; at hCB1 [4] (setting [12]), 158%.

The term EC50 denotes the concentration needed to bring the measured effect to its halfway point. A word on the Emax: it is the greatest response seen or fitted, relative to the assay's reference.

The values are drawn from patent US12486228B2, “N-substituted indoles and use as allosteric modulators of cannabinoid receptors” (priority 2018, dated 2025).
